The results in this text go back to PMC10916400, “Effect of the aggregated protein dye YAT2150 on Leishmania parasite viability” (Antimicrobial Agents and Chemotherapy, 2024).

One series has as its system L. infantum amastigotes. The series is described as follows: Amastigote growth inhibition assay (parasite rescue and transformation, RAW 264.7 macrophages). The class given is cell-based, Leishmania infantum. To be noted: in vitro. Here is the method: Compound activity on amastigotes was determined following the parasite rescue and transformation assay ([61]). RAW 264.7 macrophages were seeded in 96-well microtiter plates at 10^5 cells/mL of DMEM supplemented with 10% FBS and 1% penicillin-streptomycin (complete DMEM, DMEMc) in a final volume of 200 µL per well. After an overnight incubation (37°C, 5% CO2) to allow cell adherence, the medium was removed and 10^6 L. infantum promastigotes/mL were added (1:10 macrophage:promastigote ratio) in DMEM supplemented with 2% FBS and 1% penicillin-streptomycin (DMEM 2% FBS). After 24 h, parasites not internalized by macrophages were removed by washing (3×, PBS) and dilutions in DMEM 2% FBS of free or liposome-encapsulated compounds were added. After 48 h, the medium was removed, cells were washed three times with PBS, and 40 µL of 0.05% SDS in complete Schneider’s medium was added; after 40 s, 160 additional µL/well of complete Schneider’s medium was added and plates were incubated at 26°C for another 48 h. Then, resazurin sodium salt was incorporated at a final concentration of 0.00125% and plates were incubated for 24 h more in the same conditions. Afterwards, resorufin fluorescence was measured as above.

Series [1] can be described thus: Human microsomal stability assay. Type of series: in vitro ADME. As to conditions: 37°C. The protocol:
The following components were added in a 96-well microplate in a final volume of 500 µL 50 mM Na/K phosphate buffer, pH 7.4 (stock solutions are indicated in parentheses, dissolved in the same buffer unless otherwise specified): […] NADP (10 mM), 10 µM glucose 6-phosphate (100 mM), […] glucose 6-phosphate dehydrogenase (40 U/mL, dissolved in 5 mM sodium citrate), 3 µM MgCl2·6 H2O (30 mM, dissolved in H2O), 0.8 mg protein/mL of human microsomes (10 mg/mL protein; XenoTech), and 1 µM of test compound (100 µM, dissolved in ACN). Plates were incubated at 37°C and 75 µL samples were taken at 0, 10, 20, 40, and 60 min, to which 75 µL ACN + internal standard (Rolipram) to inactivate the microsomes and 30 µL of 0.5% formic acid in H2O to improve the chromatographic conditions were added, and kept at 4°C. When all the samples were taken, the plate was centrifuged at 46,000 × g for 30 min at 15°C, and UPLC-MS/MS was performed as above, except for the time in 100% B from 1 to 2.5 min, the return to 95% A:5% B from 2.5 to 2.6 min, and the maintenance of this ratio from 2.6 to 3.0 min. Metabolic stability was calculated from the logarithm of the remaining compound at each of the times evaluated.

For series [2], the system named is L. infantum promastigote cultures. The series is described as follows: Protein aggregation assay in L. infantum cultures (ThT fluorescence). The class given is cell-based, Leishmania infantum. To be noted: 0.15 and 0.3 µM YAT2150, 90 min and 4 h, promastigote culture extracts. Here is the method: Ten milliliters of L. infantum promastigote cultures in the logarithmic growth phase at a concentration of 10^7 cells/mL in T-25 flasks (SPL Life Sciences, Pochon, Kyonggi-do, South Korea) was either treated with 0.15 µM or 0.3 µM YAT2150 or left untreated. After 90 min and 4 h of incubation, 1 mL of each culture was washed (3×, 1 mL PBS, 600 × g, 3 min) and the parasite-containing pellets were taken up in 100 µL of 4.5 mg/mL NaCl supplemented with 1× cOmplete protease inhibitor cocktail (Roche, Basel, Switzerland) and incubated overnight at 4°C with gentle stirring. After this time, samples were spun down (2,000 × g, 10 s) and the protein in each supernatant was quantified with the Pierce BCA protein assay kit (Thermo Electron Corporation, Waltham, MA, US). In a 96-well flat bottom black plate (Greiner Bio-One), 2 µg of protein from each supernatant was diluted in a final volume of 100 µL PBS in duplicates. Protein aggregation was measured by the addition of 25 µM ThT to each well, and after a 15-min incubation with gentle stirring, ThT fluorescence emission intensity was measured as detailed above.

As for `CCN(CC)c1ccc(/C=C/c2cc[n+](CCCCCCCCCC[n+]3ccc(/C=C/c4ccc(N(CC)CC)cc4)c(C)c3)cc2C)cc1` [YAT2150], the IC50 in the series with L. infantum amastigotes (L. infantum amastigotes in RAW 264.7 macrophages) is 0.51 ± 0.11 µM; in the series on L. infantum amastigotes (Leishmania infantum, RAW264.7, L. infantum amastigotes in RAW 264.7 macrophages), roughly 0.52 µM. The “t1/2, microsomal stability” value in series [1] (human microsomes) worked out at 1.34 h. In series [1] (human, microsomes, pH 7.4, human microsomes, after 1 h), the amount remaining at 1 h, 1 µM was determined as 55%. In series [1] (human, microsomes, pH 7.4, human microsomes, read-out: t1/2, microsomal stability), the half-life at 1 µM came out at 1.33 h. In addition, the microsomal CLint at 1 µM in series [1] (pH 7.4, human microsomes) worked out at 10.6 µL/min/mg. Further, the “overall aggregation of the parasite's proteins (ThT analysis)” value in series [2] is “reduced”.

In general, IC50 refers to the concentration needed to halve the response being measured. The low end stands for inhibition by little substance, the high end for a need for much substance. In general, share remaining refers to what is left of the initial amount, in per cent. In general, microsomal CLint refers to the capacity of the preparation to metabolise the compound, expressed as a volume cleared per time. Read a low microsomal CLint as greater metabolic stability.
